Reference: patent US12077503B2, “Substituted cyclic amides and their use as herbicides” (FMC CORPORATION, priority 2015, dated 2024)
Where two headings read alike, the source gives them in different places.

What was measured:
[1] = system: barnyardgrass (Echinochloa crus-galli); assay: Test A preemergence; assay type: in vivo; conditions: Echinochloa crus-galli, pre-emergence, 240 h; for pest or weed control at 125 g/ha: 125 g ai/ha; for pest or weed control at 500 g/ha: 500 g ai/ha
Summary of the method: (§1)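 Preemergence soil spray on seeded pots or post-emergence spray on 1–2 leaf plants, in loam–sand blend. Greenhouse ~10 d. Visual rating 0–100 against untreated plants.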

[2] = system: giant foxtail (Setaria faberii); assay: Test A preemergence; assay type: in vivo; conditions: Setaria faberi, pre-emergence, 240 h; for pest or weed control at 125 g/ha: 125 g ai/ha; for pest or weed control at 500 g/ha: 500 g ai/ha
Summary of the method: as §1

[3] = system: ragweed (common ragweed, Ambrosia elatior); assay: Test A preemergence; assay type: in vivo; conditions: Ambrosia artemisiifolia, pre-emergence, 240 h; for pest or weed control at 125 g/ha: 125 g ai/ha; for pest or weed control at 500 g/ha: 500 g ai/ha
Summary of the method: as §1

Kochia (Kochia scoparia) = assay: Test A preemergence; assay type: in vivo; conditions: Bassia scoparia, pre-emergence, 240 h; for pest or weed control at 125 g/ha: 125 g ai/ha; for pest or weed control at 500 g/ha: 500 g ai/ha
Summary of the method: as §1

[4] = system: ryegrass, Italian (Italian ryegrass, Lolium multiflorum); assay: Test A preemergence; assay type: in vivo; conditions: Lolium multiflorum, pre-emergence, 240 h; for pest or weed control at 125 g/ha: 125 g ai/ha; for pest or weed control at 500 g/ha: 500 g ai/ha
Summary of the method: as §1

[5] = preemergence, 0 to 100 scale where 0 is no effect and 100 is complete control, approx. 10 d, read-out: Barnyardgrass plant response rating
[6] = preemergence, 0 to 100 scale where 0 is no effect and 100 is complete control, read-out: Barnyardgrass plant response rating
[7] = preemergence, 0 to 100 scale where 0 is no effect and 100 is complete control, approx. 10 d, read-out: Foxtail, Giant plant response rating
[8] = preemergence, 0 to 100 scale where 0 is no effect and 100 is complete control, read-out: Foxtail, Giant plant response rating
[9] = preemergence, 0 to 100 scale where 0 is no effect and 100 is complete control, approx. 10 d, read-out: Ragweed plant response rating
[10] = preemergence, 0 to 100 scale where 0 is no effect and 100 is complete control, read-out: Ragweed plant response rating
[11] = preemergence, 0 to 100 scale where 0 is no effect and 100 is complete control, approx. 10 d, read-out: Kochia plant response rating
[12] = preemergence, 0 to 100 scale where 0 is no effect and 100 is complete control, read-out: Kochia plant response rating
[13] = preemergence, 0 to 100 scale where 0 is no effect and 100 is complete control, approx. 10 d, read-out: Ryegrass, Italian plant response rating
[14] = preemergence, 0 to 100 scale where 0 is no effect and 100 is complete control, read-out: Ryegrass, Italian plant response rating
[15] = Preemergence, visual injury vs untreated controls after approximately 10 d, read-out: Barnyardgrass plant response rating (0 to 100 scale where 0 is no effect and 100 is complete control)
[16] = Preemergence, visual injury vs untreated controls after approximately 10 d, read-out: Foxtail, Giant plant response rating (0 to 100 scale where 0 is no effect and 100 is complete control)
[17] = Preemergence, visual injury vs untreated controls after approximately 10 d, read-out: Ragweed plant response rating (0 to 100 scale where 0 is no effect and 100 is complete control)
[18] = Preemergence, visual injury vs untreated controls after approximately 10 d, read-out: Kochia plant response rating (0 to 100 scale where 0 is no effect and 100 is complete control)
[19] = Preemergence, visual injury vs untreated controls after approximately 10 d, read-out: Ryegrass, Italian plant response rating (0 to 100 scale where 0 is no effect and 100 is complete control)
[20] = Preemergence, visual injury rating after approximately 10 d, read-out: Barnyardgrass plant response rating (0 to 100 scale, 0 is no effect, 100 is complete control)
[21] = preemergence, visual injury rating about 10 d after treatment, 0 to 100 scale (0 no effect, 100 complete control), read-out: Barnyardgrass plant response rating
[22] = Preemergence, visual injury rating after approximately 10 d, read-out: Foxtail, Giant plant response rating (0 to 100 scale, 0 is no effect, 100 is complete control)
[23] = preemergence, visual injury rating about 10 d after treatment, 0 to 100 scale (0 no effect, 100 complete control), read-out: Foxtail, Giant plant response rating
[24] = Preemergence, visual injury rating after approximately 10 d, read-out: Ragweed plant response rating (0 to 100 scale, 0 is no effect, 100 is complete control)
[25] = preemergence, visual injury rating about 10 d after treatment, 0 to 100 scale (0 no effect, 100 complete control), read-out: Ragweed plant response rating
[26] = Preemergence, visual injury rating after approximately 10 d, read-out: Kochia plant response rating (0 to 100 scale, 0 is no effect, 100 is complete control)
[27] = preemergence, visual injury rating about 10 d after treatment, 0 to 100 scale (0 no effect, 100 complete control), read-out: Kochia plant response rating
[28] = Preemergence, visual injury rating after approximately 10 d, read-out: Ryegrass, Italian plant response rating (0 to 100 scale, 0 is no effect, 100 is complete control)
[29] = preemergence, visual injury rating about 10 d after treatment, 0 to 100 scale (0 no effect, 100 complete control), read-out: Ryegrass, Italian plant response rating

SMILES | pest or weed control at 125 g/ha [1, 6] [%] | pest or weed control at 500 g/ha [1, 15] [%] | pest or weed control at 125 g/ha [2, 8] [%] | pest or weed control at 500 g/ha [2, 16] [%] | pest or weed control at 125 g/ha [3, 10] [%] | pest or weed control at 500 g/ha [3, 17] [%] | pest or weed control at 125 g/ha (Kochia (Kochia scoparia); [12]) [%] | pest or weed control at 500 g/ha (Kochia (Kochia scoparia); [18]) [%] | pest or weed control at 125 g/ha [4, 14] [%] | pest or weed control at 500 g/ha [4, 19] [%] | pest or weed control at 125 g/ha [1, 20] [%] | pest or weed control at 500 g/ha [1, 21] [%] | pest or weed control at 125 g/ha [2, 22] [%] | pest or weed control at 500 g/ha [2, 23] [%] | pest or weed control at 125 g/ha [3, 24] [%] | pest or weed control at 500 g/ha [3, 25] [%] | pest or weed control at 125 g/ha (Kochia (Kochia scoparia); [26]) [%] | pest or weed control at 500 g/ha (Kochia (Kochia scoparia); [27]) [%] | pest or weed control at 125 g/ha [4, 28] [%] | pest or weed control at 500 g/ha [4, 29] [%] | further results
CN1CC(c2cccc(Br)c2)C(C(=O)Nc2ccccc2F)C1=O (stereo not shown) [Compound 1132] | – | – | – | – | – | – | – | – | – | – | – | – | – | – | – | – | – | – | – | – | pest or weed control at 125 g/ha [1, 5]: 90%; pest or weed control at 500 g/ha [1, 6]: 90%; pest or weed control at 125 g/ha [2, 7]: 100%; pest or weed control at 500 g/ha [2, 8]: 100%; pest or weed control at 125 g/ha [3, 9]: 0%; pest or weed control at 500 g/ha [3, 10]: 0%; pest or weed control at 125 g/ha (Kochia (Kochia scoparia); [11]): 0%; pest or weed control at 500 g/ha (Kochia (Kochia scoparia); [12]): 0%; pest or weed control at 125 g/ha [4, 13]: 30%; pest or weed control at 500 g/ha [4, 14]: 50%; melting point: 142 to 146 °C
CCc1cc([C@H]2CNC(=O)[C@@H]2C(=O)Nc2ccccc2F)cs1 [Compound 913] | 80 | 90 | 50 | 90 | 0 | 60 | 0 | 40 | 0 | 40 | – | – | – | – | – | – | – | – | – | – | melting point: 96 to 100 °C
CN1C[C@H](c2cc(F)c(F)c(F)c2)[C@@H](C(=O)Nc2ccccc2S(C)(=O)=O)C1=O [Compound 880] | 90 | 100 | 100 | 100 | 50 | 80 | 70 | 90 | 20 | 70 | – | – | – | – | – | – | – | – | – | – | –
Cc1c(F)ccc([C@H]2CNC(=O)[C@@H]2C(=O)Nc2ccc(F)c(F)c2F)c1F [Compound 830] | 90 | 90 | 90 | 90 | 0 | 20 | 70 | 90 | 0 | 30 | – | – | – | – | – | – | – | – | – | – | –
Cc1cc([C@H]2CNC(=O)[C@@H]2C(=O)Nc2ccccc2F)ccc1C(F)(F)F [Compound 1042] | – | – | – | – | – | – | – | – | – | – | 90 | 90 | 90 | 90 | 20 | 40 | 20 | 70 | 30 | 50 | –
CN1C[C@H](c2cc(F)cc(F)c2)[C@@H](C(=O)Nc2ccc(C(F)(F)F)cc2)C1=O [Compound 968] | – | – | – | – | – | – | – | – | – | – | 20 | 60 | 30 | 60 | 0 | 0 | 0 | 0 | 0 | 0 | –
CN1C[C@H](c2ccc3c(c2)OCO3)[C@@H](C(=O)Nc2cccc(F)c2F)C1=O [Compound 1126] | – | – | – | – | – | – | – | – | – | – | – | – | – | – | – | – | – | – | – | – | pest or weed control at 125 g/ha [1, 5]: 90%; pest or weed control at 500 g/ha [1, 6]: 90%; pest or weed control at 125 g/ha [2, 7]: 90%; pest or weed control at 500 g/ha [2, 8]: 90%; pest or weed control at 125 g/ha [3, 9]: 60%; pest or weed control at 500 g/ha [3, 10]: 50%; pest or weed control at 125 g/ha (Kochia (Kochia scoparia); [11]): 70%; pest or weed control at 500 g/ha (Kochia (Kochia scoparia); [12]): 80%; pest or weed control at 125 g/ha [4, 13]: 0%; pest or weed control at 500 g/ha [4, 14]: 70%
Cc1cc([C@H]2CN(C)C(=O)[C@@H]2C(=O)Nc2cccc(F)c2F)cc(C)c1Br [Compound 1024] | – | – | – | – | – | – | – | – | – | – | 70 | 90 | 90 | 90 | 0 | 30 | 30 | 40 | 0 | 90 | –
CN1CC[C@H](c2ccccc2)[C@@H](C(=O)Nc2ccccc2F)C1=O [Compound 1032] | – | – | – | – | – | – | – | – | – | – | 20 | 70 | 0 | 70 | 0 | 0 | 0 | 0 | 0 | 0 | –
O=C1NC[C@H](c2cccc(C(F)(F)F)c2)[C@H]1C(=O)Nc1cccc2c1OC(F)(F)O2 [Compound 827] | 90 | 90 | 90 | 90 | 0 | 20 | 30 | 60 | 30 | 70 | – | – | – | – | – | – | – | – | – | – | –
Cc1ccc([C@H]2CNC(=S)[C@@H]2C(=O)Nc2ccccc2F)cc1 (racemic) [Compound 945] | – | – | – | – | – | – | – | – | – | – | 60 | 90 | 0 | 70 | 0 | 0 | 0 | 0 | 0 | 0 | –
